Measured values published in ChEMBL document CHEMBL1143065, “Discovery and characterization of 4'-(2-furyl)-N-pyridin-3-yl-4,5'-bipyrimidin-2'-amine (LAS38096), a potent, selective, and efficacious A2B adenosine receptor antagonist” (J Med Chem, 2007).

Columns and labels:
[1] = molecular target: T1, Adenosine receptor A3 (Homo sapiens, UniProt P0DMS8); test: Displacement of […] from human A3 receptor expressed in HeLa cells; assay type: cell-based
T1 sequence (P0DMS8 whole entry): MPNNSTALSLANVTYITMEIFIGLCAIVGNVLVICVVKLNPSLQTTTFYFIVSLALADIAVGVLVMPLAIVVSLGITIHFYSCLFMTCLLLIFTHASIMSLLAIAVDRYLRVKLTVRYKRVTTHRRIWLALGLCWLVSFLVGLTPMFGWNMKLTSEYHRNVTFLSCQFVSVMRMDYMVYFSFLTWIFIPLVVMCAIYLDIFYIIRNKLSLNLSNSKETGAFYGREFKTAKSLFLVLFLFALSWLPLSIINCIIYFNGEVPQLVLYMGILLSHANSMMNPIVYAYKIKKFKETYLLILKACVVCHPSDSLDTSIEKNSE

[2] = molecular target: T2, Adenosine receptor A2a (Homo sapiens, UniProt P29274); test: Displacement of [3H]ZM-241385 from human A2A receptor expressed in HeLa cells at 2500 nM; assay type: cell-based
[3] = molecular target: T3, Adenosine receptor A3 (Homo sapiens) (UniProt P0DMS8); test: Displacement of […] from human A3 receptor expressed in HeLa cells at 1000 nM; assay type: cell-based
T3 sequence (whole entry): T1 sequence (P0DMS8 whole entry)

[4] = molecular target: T4, Adenosine receptor A1 (Homo sapiens) (UniProt P30542); test: Displacement of [3H]DPCPX from human A1 receptor expressed in CHO cells at 10000 nM; assay type: cell-based
T4 sequence (whole entry): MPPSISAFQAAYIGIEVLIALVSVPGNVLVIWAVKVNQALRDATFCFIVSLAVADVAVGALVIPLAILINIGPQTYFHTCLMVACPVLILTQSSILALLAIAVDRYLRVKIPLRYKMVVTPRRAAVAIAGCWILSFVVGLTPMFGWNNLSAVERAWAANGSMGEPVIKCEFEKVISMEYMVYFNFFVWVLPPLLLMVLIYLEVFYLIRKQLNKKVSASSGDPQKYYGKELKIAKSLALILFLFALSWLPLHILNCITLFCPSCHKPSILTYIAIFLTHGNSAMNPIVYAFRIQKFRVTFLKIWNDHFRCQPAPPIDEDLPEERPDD

[5] = molecular target: T2, Adenosine receptor A2a; test: Displacement of [3H]ZM-241385 from human A2A receptor expressed in HeLa cells; assay type: cell-based
[6] = molecular target: T5, Adenosine receptor A2b (Homo sapiens, UniProt P29275); test: Displacement of [3H]DPCPX from human A2B receptor expressed in HEK293 cells; assay type: cell-based
T5 sequence (P29275 whole entry): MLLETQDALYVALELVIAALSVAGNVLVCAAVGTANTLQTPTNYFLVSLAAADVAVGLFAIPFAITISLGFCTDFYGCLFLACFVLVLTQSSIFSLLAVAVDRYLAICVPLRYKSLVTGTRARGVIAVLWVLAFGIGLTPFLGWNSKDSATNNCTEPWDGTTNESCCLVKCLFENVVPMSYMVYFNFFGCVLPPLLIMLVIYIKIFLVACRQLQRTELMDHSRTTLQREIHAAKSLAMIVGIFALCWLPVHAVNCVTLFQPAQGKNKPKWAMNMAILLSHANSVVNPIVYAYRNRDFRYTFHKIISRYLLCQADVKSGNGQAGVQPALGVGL

[7] = molecular target: T6, Adenosine receptor A1 (Homo sapiens, UniProt P30542); test: Displacement of [3H]DPCPX from human A1 receptor expressed in CHO cells; assay type: cell-based
T6 sequence (P30542 whole entry): T4 sequence (whole entry)

[8] = molecular target: T7, Adenosine receptor A2b (Mus musculus, UniProt Q60614); test: Inhibition of NECA-induced IL6 production in Swiss mouse fibroblasts after 24 hrs by ELISA; assay type: functional
T7 sequence (Q60614 whole entry): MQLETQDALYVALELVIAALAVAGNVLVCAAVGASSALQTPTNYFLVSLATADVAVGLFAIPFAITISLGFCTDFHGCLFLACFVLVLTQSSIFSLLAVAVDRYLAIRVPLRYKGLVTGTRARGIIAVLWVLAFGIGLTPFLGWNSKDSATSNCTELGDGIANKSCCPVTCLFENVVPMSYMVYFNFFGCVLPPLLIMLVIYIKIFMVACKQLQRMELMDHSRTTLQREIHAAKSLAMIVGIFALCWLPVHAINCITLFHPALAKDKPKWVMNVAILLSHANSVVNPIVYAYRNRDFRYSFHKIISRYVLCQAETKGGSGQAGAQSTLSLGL

[9] = AUC in Beagle dog at 10 mg/kg, po; assay type: ADME, organism-based, Canis lupus familiaris; set-up: dose 10 mg/kg, route oral; conditions: plasma
[10] = Clearance in Beagle dog at 1 mg/kg, iv; assay type: ADME, organism-based, Canis lupus familiaris; set-up: dose 1 mg/kg, route intravenous; conditions: in vivo
[11] = Half life in Beagle dog at 1 mg/kg, iv; assay type: ADME, organism-based, Canis lupus familiaris; set-up: dose 1 mg/kg, route intravenous; conditions: in vivo
[12] = Cmax in Beagle dog at 10 mg/kg, po; assay type: ADME, organism-based, Canis lupus familiaris; set-up: dose 10 mg/kg, route oral; conditions: in vivo
[13] = Mean residence time in Wistar rat at 10 mg/kg, po; assay type: ADME, organism-based; set-up: dose 10 mg/kg, route oral; conditions: in vivo
[14] = molecular target: T5, Adenosine receptor A2b; test: Activity at human A2B receptor expressed in HEK293 cells assessed as inhibition of NECA-induced intracellular cAMP levels by ELISA; assay type: functional, cell-based
[15] = Half life in Wistar rat at 1 mg/kg, iv; assay type: ADME, organism-based; set-up: dose 1 mg/kg, route intravenous; conditions: in vivo
[16] = molecular target: T8, Adenosine receptors; A2b & A3 (Homo sapiens, UniProt P29275+P0DMS8); test: Inhibition of NECA-induced IL6 production in human fibroblast after 24 hrs by ELISA; assay type: functional
T8 sequence (P29275 whole entry): T5 sequence (P29275 whole entry)
T8 sequence (P0DMS8 whole entry): T1 sequence (P0DMS8 whole entry)

[17] = Tmax in Wistar rat at 10 mg/kg, po; assay type: ADME, organism-based; set-up: dose 10 mg/kg, route oral; conditions: in vivo
[18] = Tmax in Swiss mouse at 10 mg/kg, po; assay type: ADME, organism-based; set-up: dose 10 mg/kg, route oral; conditions: in vivo
[19] = Mean residence time in Beagle dog at 1 mg/kg, iv; assay type: ADME, organism-based, Canis lupus familiaris; set-up: dose 1 mg/kg, route intravenous; conditions: in vivo
[20] = Volume of distribution at steady state in Wistar rat at 1 mg/kg, iv; assay type: ADME, organism-based; set-up: dose 1 mg/kg, route intravenous; conditions: in vivo, read-out: Vdss
[21] = Mean residence time in Beagle dog at 10 mg/kg, po; assay type: ADME, organism-based, Canis lupus familiaris; set-up: dose 10 mg/kg, route oral; conditions: in vivo
[22] = Bioavailability in Beagle dog at 10 mg/kg, po; assay type: ADME, organism-based, Canis lupus familiaris; conditions: in vivo
[23] = Bioavailability in Wistar rat at 10 mg/kg, po; assay type: ADME, organism-based; conditions: in vivo
[24] = AUC in Wistar rat at 10 mg/kg, po; assay type: ADME, organism-based; set-up: dose 10 mg/kg, route oral; conditions: plasma
[25] = Cmax in Wistar rat at 10 mg/kg, po; assay type: ADME, organism-based; set-up: dose 10 mg/kg, route oral; conditions: in vivo
[26] = Tmax in Beagle dog at 10 mg/kg, po; assay type: ADME, organism-based, Canis lupus familiaris; set-up: dose 10 mg/kg, route oral; conditions: in vivo
[27] = Cmax in Swiss mouse at 10 mg/kg, po; assay type: ADME, organism-based; set-up: dose 10 mg/kg, route oral; conditions: in vivo
[28] = molecular target: T7, Adenosine receptor A2b; test: Activity at mouse A2B receptor expressed in CHO cells assessed as inhibition of NECA-induced intracellular cAMP levels by ELISA; assay type: functional, cell-based
[29] = Volume of distribution at steady state in Beagle dog at 1 mg/kg, iv; assay type: ADME, organism-based, Canis lupus familiaris; set-up: dose 1 mg/kg, route intravenous; conditions: in vivo, read-out: Vdss
[30] = molecular target: T4, Adenosine receptor A1 (Homo sapiens); test: Displacement of [3H]DPCPX from human A1 receptor expressed in CHO cells at 1000 nM; assay type: cell-based
[31] = system: Rattus norvegicus; test: Clearance in Wistar rat at 1 mg/kg, iv; assay type: ADME, organism-based; set-up: dose 1 mg/kg, route intravenous; conditions: in vivo
[32] = AUC in Swiss mouse at 10 mg/kg, po; assay type: ADME, organism-based; set-up: dose 10 mg/kg, route oral; conditions: plasma
[33] = molecular target: Adenosine receptor A3 (Mus musculus) (UniProt Q61618); conditions: CHO, 10 uM
Description: Activity at mouse A3 receptor expressed in CHO cells assessed as inhibition of NECA-induced intracellular cAMP levels at 10 uM by ELISA

[34] = Mean residence time in Wistar rat at 1 mg/kg, iv; assay type: ADME, organism-based; set-up: dose 1 mg/kg, route intravenous; conditions: in vivo

T2 sequence (P29274 whole entry): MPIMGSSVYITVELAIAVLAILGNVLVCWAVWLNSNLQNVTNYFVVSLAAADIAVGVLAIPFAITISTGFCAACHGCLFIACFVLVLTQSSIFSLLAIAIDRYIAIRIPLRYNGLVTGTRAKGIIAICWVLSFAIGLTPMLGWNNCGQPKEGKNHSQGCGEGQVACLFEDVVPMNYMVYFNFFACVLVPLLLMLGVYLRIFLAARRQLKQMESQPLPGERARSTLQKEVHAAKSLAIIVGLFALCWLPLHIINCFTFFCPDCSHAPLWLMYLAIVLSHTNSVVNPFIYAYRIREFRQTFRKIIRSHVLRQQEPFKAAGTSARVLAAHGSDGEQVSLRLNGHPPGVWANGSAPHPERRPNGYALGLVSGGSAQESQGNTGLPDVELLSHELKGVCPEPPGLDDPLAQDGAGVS
Chain of Adenosine receptor A3 (Mus musculus) (Q61618 whole entry, looked up): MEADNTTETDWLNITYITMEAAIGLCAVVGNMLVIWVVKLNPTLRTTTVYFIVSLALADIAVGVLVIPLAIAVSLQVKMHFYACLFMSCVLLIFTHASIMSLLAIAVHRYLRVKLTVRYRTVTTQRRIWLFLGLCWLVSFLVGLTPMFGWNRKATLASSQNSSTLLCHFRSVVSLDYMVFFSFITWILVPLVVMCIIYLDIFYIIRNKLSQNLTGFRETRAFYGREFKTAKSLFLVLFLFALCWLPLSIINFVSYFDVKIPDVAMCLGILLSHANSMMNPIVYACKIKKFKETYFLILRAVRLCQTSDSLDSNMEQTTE

O=c1ccc(Nc2ncc(-c3ccncn3)c(-c3ccco3)n2)cn1CC1CC1
Ki [1]: > 1000 nM
inhibition [2]: 38.5%
inhibition [3]: 29%
inhibition [4]: 28%
Ki [5]: > 2500 nM
Ki [6]: 119 nM
Ki [7]: > 10000 nM

O=c1ccc(Nc2ncc(-c3ccncn3)c(-c3ccco3)n2)c[nH]1
Ki [1]: > 1000 nM
inhibition [2]: 25%
inhibition [3]: 15%
inhibition [4]: 31%
Ki [5]: > 2500 nM
Ki [6]: 16 nM
Ki [7]: > 10000 nM

COc1ncc(Nc2ncc(-c3ccncn3)c(-c3ccco3)n2)cn1
Ki [1]: > 1000 nM
inhibition [2]: 25%
inhibition [3]: 32%
inhibition [4]: 45%
Ki [5]: > 2500 nM
Ki [6]: 39 nM
Ki [7]: > 10000 nM

[O-][n+]1cccc(Nc2ncc(-c3ccncn3)c(-c3ccco3)n2)c1
Ki [1]: > 1000 nM
inhibition [2]: 24%
inhibition [3]: 35%
inhibition [4]: 38%
Ki [5]: > 2500 nM
Ki [6]: 34 nM
Ki [7]: > 10000 nM

Cn1cc(Nc2ncc(-c3ccncn3)c(-c3ccco3)n2)ccc1=O
Ki [1]: > 1000 nM
inhibition [2]: 20%
inhibition [3]: 28%
inhibition [4]: 17%
Ki [5]: > 2500 nM
Ki [6]: 28 nM
Ki [7]: > 10000 nM

c1coc(-c2nc(Nc3cncnc3)ncc2-c2ccncn2)c1
Ki [1]: > 1000 nM
inhibition [2]: 29%
inhibition [3]: 42%
Ki [5]: > 2500 nM
Ki [6]: 24 nM
IC50 [7]: 45 nM
Ki [7]: > 10000 nM

N#Cc1cncc(Nc2ncc(-c3ccncn3)c(-c3ccco3)n2)c1
Ki [1]: > 1000 nM
inhibition [2]: 37%
inhibition [3]: 24%
inhibition [4]: 22%
Ki [5]: > 2500 nM
Ki [6]: 69 nM
Ki [7]: > 10000 nM

c1coc(-c2nc(Nc3cnccn3)ncc2-c2ccncn2)c1
Ki [1]: > 1000 nM
inhibition [2]: 21%
inhibition [3]: 18%
inhibition [4]: 30%
Ki [5]: > 2500 nM
Ki [6]: 116 nM
Ki [7]: > 10000 nM

c1cncc(Nc2ncc(-c3ccncn3)c(-c3ccco3)n2)c1
IC50 [8]: 640 nM
AUC [9]: 15 µM·h
clearance [10]: 28 mL/min/kg
Ki [1]: > 1000 nM
half-life [11]: 48 min
Cmax [12]: 6 µM
MRT [13]: 84 min
inhibition [2]: 40%
IC50 [14]: 321 nM
half-life [15]: 12 min
inhibition [3]: 36%
IC50 [16]: 340 nM
Tmax [17]: 18 min
Tmax [18]: 18 min
MRT [19]: 42 min
Vd [20]: 0.5 L/kg
MRT [21]: 108 min
bioavailability [22]: 81%
bioavailability [23]: 75%
Ki [5]: > 2500 nM
AUC [24]: 16 µM·h
Cmax [25]: 11 µM
Tmax [26]: 78 min
Ki [6]: 17 nM
Cmax [27]: 13 µM
IC50 [28]: 349 nM
Vd [29]: 1.1 L/kg
Ki [7]: > 1000 nM
inhibition [30]: 14%
clearance [31]: 25 mL/min/kg
AUC [32]: 4 µM·h
inhibition [33]: 5%
MRT [34]: 18 min

COc1ccc(Nc2ncc(-c3ccncn3)c(-c3ccco3)n2)cn1
Ki [1]: > 1000 nM
inhibition [2]: 21%
inhibition [3]: 29%
inhibition [4]: 25%
Ki [5]: > 2500 nM
Ki [6]: 115 nM
Ki [7]: > 10000 nM
